Test results: ChEMBL document CHEMBL1145642, “Farnesyl pyrophosphate synthase enantiospecificity with a chiral risedronate analog, [6,7-dihydro-5H-cyclopenta[c]pyridin-7-yl(hydroxy)methylene]bis(phosphonic acid) (NE-10501): Synthetic, structural, and modeling studies” (Bioorg Med Chem Lett, 2008)

Molecular target: T1, Farnesyl pyrophosphate synthase (Homo sapiens, UniProt P14324)
T1 sequence (P14324 whole entry): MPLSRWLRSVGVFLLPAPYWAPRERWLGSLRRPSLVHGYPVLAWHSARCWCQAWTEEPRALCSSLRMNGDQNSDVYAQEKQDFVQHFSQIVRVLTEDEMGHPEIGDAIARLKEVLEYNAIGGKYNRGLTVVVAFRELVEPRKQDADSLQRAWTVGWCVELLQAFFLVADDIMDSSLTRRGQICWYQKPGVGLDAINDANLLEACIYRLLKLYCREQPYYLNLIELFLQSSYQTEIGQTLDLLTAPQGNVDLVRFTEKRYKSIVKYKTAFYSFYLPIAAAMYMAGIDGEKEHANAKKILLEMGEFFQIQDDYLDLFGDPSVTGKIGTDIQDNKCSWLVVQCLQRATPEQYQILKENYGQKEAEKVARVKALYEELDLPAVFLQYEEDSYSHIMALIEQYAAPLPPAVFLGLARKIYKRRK

O=P(O)(O)C(O)(C1CCc2ccncc21)P(=O)(O)O (stereo unspecified)
IC50: 630 nM
